Test results from US10654802B2, “Indoline derivatives and method for using and producing the same” (ARIZONA BOARD OF REGENTS ON BEHALF OF THE UNIVERSITY OF …, priority 2016, dated 2020).

Biological target: T1, Nox4 (Homo sapiens, UniProt Q9NPH5)
T1 construct: expressed in transfected cells
T1 sequence (Q9NPH5 1-578): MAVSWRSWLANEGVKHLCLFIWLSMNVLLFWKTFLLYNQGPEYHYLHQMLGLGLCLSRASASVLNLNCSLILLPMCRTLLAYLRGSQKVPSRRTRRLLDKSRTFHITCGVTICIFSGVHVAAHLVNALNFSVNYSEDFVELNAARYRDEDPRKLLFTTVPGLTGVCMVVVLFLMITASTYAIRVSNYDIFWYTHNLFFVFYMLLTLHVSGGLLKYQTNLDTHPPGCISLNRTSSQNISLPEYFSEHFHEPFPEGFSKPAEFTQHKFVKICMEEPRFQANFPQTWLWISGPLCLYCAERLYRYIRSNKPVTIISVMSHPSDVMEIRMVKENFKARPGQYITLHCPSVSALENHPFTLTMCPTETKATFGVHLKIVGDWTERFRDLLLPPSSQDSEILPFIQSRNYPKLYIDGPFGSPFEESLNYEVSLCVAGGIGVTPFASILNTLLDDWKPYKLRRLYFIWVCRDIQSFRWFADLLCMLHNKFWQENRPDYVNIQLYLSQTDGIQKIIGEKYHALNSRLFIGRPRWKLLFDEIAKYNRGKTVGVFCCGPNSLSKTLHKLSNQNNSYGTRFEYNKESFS
T1 sequence (P13498 1-195 partner): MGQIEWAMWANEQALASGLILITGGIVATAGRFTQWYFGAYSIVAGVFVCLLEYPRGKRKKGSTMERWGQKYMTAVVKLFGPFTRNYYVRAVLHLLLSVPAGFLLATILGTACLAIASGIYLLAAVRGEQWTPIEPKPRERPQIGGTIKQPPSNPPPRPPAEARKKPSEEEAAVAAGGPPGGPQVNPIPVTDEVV
Assay: Inhibition of Nox4-dependent H2O2 production in HEK/Nox4 cells, Amplex Red assay
Format: cell-based
Conditions: for remaining activity at 1 µM: 1 μM final concentration; for remaining activity at 1 µM / remaining activity at 5 µM / remaining activity at 10 µM: 1 h, HEK/Nox4 cells, DMSO vehicle = 1.000, n = 3-10, read-out: H2O2 production relative to vehicle control, Mean; for remaining activity at 5 µM: 5 μM final concentration; for remaining activity at 10 µM: 10 μM final concentration
Description: A high-throughput screening (HTS) assay was established for Nox4 inhibition, utilizing HEK293 cells that stably over-express Nox4 (HEK/Nox4 cells), which generate high levels of H2O2(Cheng G et al, Gene: 2001, p. 131-140). Over 30,000 compounds have been screened and medicinal chemistry efforts have led to the synthesis of numerous analogs and the identification of a chemically distinct series of selective Nox4 inhibitors. […] IC-50 was evaluated for UANox048 (FIG. 1B).
HEK cells stably transfected to overexpress Nox4 were treated with varying concentrations of test compounds, DPI (all-Nox inhibitor positive control), or DMSO (vehicle control) and incubated for 1 h (FIG. 1). (FIG. 1A) H2O2 presence was evaluated by Amplex Red assay. […] Values represent means±SEM; n=4. P values were calculated by student's two-tailed t test. *p<0.05, **p<0.01, *** p<0.001.

In the case of CCN(CC)S(=O)(=O)NCCN1CCc2ccccc21 [UANOX001, N—(N,N-diethylaminosulfonyl)-2-(indolin-1-yl)ethan-1-amine], the remaining activity at 1 µM was 99.5%, the remaining activity at 5 µM was 106% and the remaining activity at 10 µM was 103%.
CCN(CC)C(=O)NCCN1CCc2ccccc21 [UANOX002, 1,1-diethyl-3-(2-(indolin-1-yl)ethyl)urea] gave a remaining activity at 1 µM of 98.6%, a remaining activity at 5 µM of 106% and a remaining activity at 10 µM of 101%.
CN(C)S(=O)(=O)NCCN1CCc2ccccc21 [UANOX003, N—(N,N-dimethylaminosulfonyl)-2-(indolin-1-yl)ethan-1-amine] showed a remaining activity at 1 µM of 101%, a remaining activity at 5 µM of 103% and a remaining activity at 10 µM of 103%.
O=S(=O)(NCCN1CCc2ccccc21)N1CCCC1 [UANOX004, N-(2-(indolin-1-yl)ethyl)pyrrolidine-1-sulfonamide] was tested, and the remaining activity at 1 µM was 99.4%, the remaining activity at 5 µM was 101% and the remaining activity at 10 µM was 88.2%.
In the case of CCN(CC)C(=O)NCC(C)N1CCc2ccccc21 (stereo not shown) [UANOX006, 1,1-diethyl-3-(2-(indolin-1-yl)propyl)urea], the remaining activity at 1 µM was 82.2%, the remaining activity at 5 µM was 82.5% and the remaining activity at 10 µM was 74.1%.
CC(CNS(=O)(=O)N(C)C)N1CCc2ccccc21 (stereo not shown) [UANOX007, N—(N,N-dimethylaminosulfonyl)-2-(indolin-1-yl)propane-1-amine] was tested, and the remaining activity at 1 µM was 103%, the remaining activity at 5 µM was 91.6% and the remaining activity at 10 µM was 90.8%.
Compound CC(CNS(=O)(=O)N1CCCC1)N1CCc2ccccc21 (stereo not shown) [UANOX008, N-(2-(indolin-1-yl)propyl)pyrrolidine-1-sulfonamide] has a remaining activity at 1 µM of 98.4%, a remaining activity at 5 µM of 77.9% and a remaining activity at 10 µM of 67.8%.
With CN1CCN(C(=O)NCCN2CCc3ccccc32)CC1 [UANOX011, N-(2-(indolin-1-yl)ethyl)-4-methylpiperazine-1-carboxamide] the remaining activity at 1 µM was 98%, the remaining activity at 5 µM was 97.9% and the remaining activity at 10 µM was 95.6%.
In the case of O=S(=O)(NCCN1CCc2ccccc21)N1CCOCC1 [UANOX012, N-(2-(indolin-1-yl)ethyl)morpholine-4-sulfonamide], the remaining activity at 1 µM was 96%, the remaining activity at 5 µM was 95% and the remaining activity at 10 µM was 85.7%.
For O=S(=O)(NCCN1CCc2ccccc21)N1CCCCC1 [UANOX013, N-(2-(indolin-1-yl)ethyl)piperidine-1-sulfonamide], the remaining activity at 1 µM was 101%, the remaining activity at 5 µM was 92.1% and the remaining activity at 10 µM was 88.1%.
c1ccc2c(c1)CCN2CCN1CCCCC1 [UANOX018, 1-(2-(piperidin-1-yl)ethyl)indoline] was tested, and the remaining activity at 1 µM was 110%, the remaining activity at 5 µM was 103% and the remaining activity at 10 µM was 100%.
For CC(CNC(=O)N1CCN(C)CC1)N1CCc2ccccc21 (stereo not shown) [UANOX019, N-(2-(indolin-1-yl)propyl)-4-methylpiperazine-1-carboxamide], the remaining activity at 1 µM was 91.5%, the remaining activity at 5 µM was 81.4% and the remaining activity at 10 µM was 74.1%.
CC(CNC(=O)N1CCCC1)N1CCc2ccccc21 (stereo not shown) [UANOX020, N-(2-(indolin-1-yl)propyl)pyrrolidine-1-carboxamide] was tested, and the remaining activity at 1 µM was 73.7%, the remaining activity at 5 µM was 87% and the remaining activity at 10 µM was 86.6%.
O=C(NCCN1CCc2ccccc21)N1CCCC1 [UANOX021, N-(2-(indolin-1-yl)ethyl)pyrrolidine-1-carboxamide] gave a remaining activity at 1 µM of 74.2%, a remaining activity at 5 µM of 87.6% and a remaining activity at 10 µM of 79.1%.
In the case of O=C(CCN1CCN(c2ncccn2)CC1)N1CCc2ccccc21 [UANOX022, 1-(indolin-1-yl)-3-(4-(pyrimidin-2-yl)piperazin-1-yl)propan-1-one], the remaining activity at 1 µM was 111%, the remaining activity at 5 µM was 107% and the remaining activity at 10 µM was 110%.
O=C(CNC1CCCCCC1)N1CCc2ccccc21 [UANOX023, 2-(cycloheptylamino)-1-(indolin-1-yl)ethan-1-one] gave a remaining activity at 1 µM of 98.4%, a remaining activity at 5 µM of 108% and a remaining activity at 10 µM of 100%.
For CCN(CC)S(=O)(=O)N1CCN(CC(=O)N2CCc3ccccc32)CC1 [UANOX025, N,N-diethyl-4-(2-(indolin-1-yl)-2-oxoethyl)piperazine-1-sulfonamide], the remaining activity at 1 µM was 107%, the remaining activity at 5 µM was 113% and the remaining activity at 10 µM was 112%.
Compound O=C(CN1CCN(S(=O)(=O)N2CCOCC2)CC1)N1CCc2ccccc21 [UANOX026, 1-(indolin-1-yl)-2-(4-(morpholinosulfonyl)piperazin-1-yl)ethan-1-one] has a remaining activity at 1 µM of 90.6%, a remaining activity at 5 µM of 106% and a remaining activity at 10 µM of 101%.
O=C(CN1CCN(S(=O)(=O)N2CCCCC2)CC1)N1CCc2ccccc21 [UANOX027, 1-(indolin-1-yl)-2-(4-(piperidin-1-ylsulfonyl)piperazin-1-yl)ethan-1-one] was tested, and the remaining activity at 1 µM was 113%, the remaining activity at 5 µM was 113% and the remaining activity at 10 µM was 112%.
In the case of CN(C)S(=O)(=O)N1CCN(CC(=O)N2CCc3ccccc32)CC1 [UANOX028, 4-(2-(indolin-1-yl)-2-oxoethyl)-N,N-dimethylpiperazine-1-sulfonamide], the remaining activity at 1 µM was 108%, the remaining activity at 5 µM was 112% and the remaining activity at 10 µM was 111%.
CCN(CC)S(=O)(=O)N1CCN(CCC(=O)N2CCc3ccccc32)CC1 [UANOX029, N,N-diethyl-4-(3-(indolin-1-yl)-3-oxopropyl)piperazine-1-sulfonamide] showed a remaining activity at 1 µM of 112%, a remaining activity at 5 µM of 112% and a remaining activity at 10 µM of 110%.
In the case of O=C(CCN1CCN(S(=O)(=O)N2CCOCC2)CC1)N1CCc2ccccc21 [UANOX030], the remaining activity at 1 µM was 108%, the remaining activity at 5 µM was 108% and the remaining activity at 10 µM was 104%.
Compound O=C(CCN1CCN(S(=O)(=O)N2CCCCC2)CC1)N1CCc2ccccc21 [UANOX031, 1-(indolin-1-yl)-3-(4-(piperidin-1-ylsulfonyl)piperazin-1-yl)propan-1-one] has a remaining activity at 1 µM of 111%, a remaining activity at 5 µM of 111% and a remaining activity at 10 µM of 99.7%.
Compound CN(C)S(=O)(=O)N1CCN(CCC(=O)N2CCc3ccccc32)CC1 [UANOX032, 4-(3-(indolin-1-yl)-3-oxopropyl)-N,N-dimethylpiperazine-1-sulfonamide] has a remaining activity at 1 µM of 112%, a remaining activity at 5 µM of 109% and a remaining activity at 10 µM of 105%.
In the case of CC(CNC(=O)c1csc(-c2ccncc2)n1)N1CCc2ccccc21 (stereo not shown) [UANOX033, N-(2-(indolin-1-yl)propyl)-2-(pyridin-4-yl)thiazole-4-carboxamide], the remaining activity at 1 µM was 100%, the remaining activity at 5 µM was 91.2% and the remaining activity at 10 µM was 86.7%.
COc1ccc(S(=O)(=O)NCC(C)N2CCc3ccccc32)cc1 (stereo not shown) [UANOX034, N-(2-(indolin-1-yl)propyl)-4-methoxybenzenesulfonamide] was tested, and the remaining activity at 1 µM was 95.9%, the remaining activity at 5 µM was 80.3% and the remaining activity at 10 µM was 70.6%. The “H2O2 generation by HEK/Nox4 cells” value (varying concentrations, Amplex Red, FIG. 1A) was “dose-dependent decrease”.
For CCN(CC)S(=O)(=O)NCC(C)N1CCc2cc(-c3cccc(OC)c3)ccc21 (stereo not shown) [UANOX036, N-(2-(5-(3-methoxyphenyl)indolin-1-yl)propyl)-N,N-diethyl-1-sulfonamide], the remaining activity at 1 µM was 102%, the remaining activity at 5 µM was 83.2% and the remaining activity at 10 µM was 74.7%.
For CC(CNS(=O)(=O)N1CCN(C)CC1)N1CCc2ccccc21 (stereo not shown) [UANOX037], the remaining activity at 1 µM was 97.2%, the remaining activity at 5 µM was 79.3% and the remaining activity at 10 µM was 77.3%.
For CCN(CC)S(=O)(=O)Nc1ccc(N2CCc3ccccc32)cc1 [UANOX038, N—(N,N-diethylaminosulfonyl)-4-(indolin-1-yl)aniline], the remaining activity at 1 µM was 92.5%, the remaining activity at 5 µM was 80% and the remaining activity at 10 µM was 63.5%.
CC(CNS(=O)(=O)c1ccc(OC(F)(F)F)cc1)N1CCc2ccccc21 (stereo not shown) [UANOX049, N-(2-(indolin-1-yl)propyl)-4-(trifluoromethoxy)benzenesulfonamide] showed a remaining activity at 1 µM of 87.1%, a remaining activity at 5 µM of 78.4% and a remaining activity at 10 µM of 71.4%.
Compound COc1ccc(-c2nc(C(=O)NCC(C)N3CCc4ccccc43)cs2)cc1 (stereo not shown) [UANOX054, N-(2-(indolin-1-yl)propyl)-2-(4-(methoxy)phenyl)thiazole-4-carboxamide] has a remaining activity at 1 µM of 90.2%, a remaining activity at 5 µM of 87.6% and a remaining activity at 10 µM of 82.4%.
